Test results from patent US20090215778A1, “Alpha-substituted Arylmethyl Piperazine Pyrazolo [1,5-alpha]Pyrimidine Amide Derivatives” (priority 2007, published 2009).

Assays:
[1] = target: T1, HIV Env six-helix bundle (6HB) structure (Human immunodeficiency virus type 1 group M subtype B, UniProt P04579); assay: Six-helix bundle (6HB) assay; assay type: cell-based, HIV-1 (strain RF)
T1 construct: H9 cells chronically infected with HIV-1 (H9/HIV-1RF); endogenous in cells; host or cells: H9 cells chronically infected with HIV-1 strain RF (Env is made from the virus in the infected cells, not by transfection)
T1 sequence (P04579 32-519): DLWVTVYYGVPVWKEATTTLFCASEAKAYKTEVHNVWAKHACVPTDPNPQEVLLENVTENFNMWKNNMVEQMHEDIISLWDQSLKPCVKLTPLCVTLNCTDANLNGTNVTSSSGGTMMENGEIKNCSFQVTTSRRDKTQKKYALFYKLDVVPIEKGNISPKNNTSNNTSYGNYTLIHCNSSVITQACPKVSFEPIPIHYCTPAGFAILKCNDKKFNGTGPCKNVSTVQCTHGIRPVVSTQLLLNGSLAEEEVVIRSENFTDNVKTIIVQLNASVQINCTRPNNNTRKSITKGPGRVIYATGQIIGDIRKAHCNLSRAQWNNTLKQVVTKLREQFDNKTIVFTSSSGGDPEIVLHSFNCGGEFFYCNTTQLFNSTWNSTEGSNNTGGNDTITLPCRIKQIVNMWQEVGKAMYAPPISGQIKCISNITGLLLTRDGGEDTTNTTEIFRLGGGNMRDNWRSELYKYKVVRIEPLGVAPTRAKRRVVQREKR
T1 sequence (P04579 520-865): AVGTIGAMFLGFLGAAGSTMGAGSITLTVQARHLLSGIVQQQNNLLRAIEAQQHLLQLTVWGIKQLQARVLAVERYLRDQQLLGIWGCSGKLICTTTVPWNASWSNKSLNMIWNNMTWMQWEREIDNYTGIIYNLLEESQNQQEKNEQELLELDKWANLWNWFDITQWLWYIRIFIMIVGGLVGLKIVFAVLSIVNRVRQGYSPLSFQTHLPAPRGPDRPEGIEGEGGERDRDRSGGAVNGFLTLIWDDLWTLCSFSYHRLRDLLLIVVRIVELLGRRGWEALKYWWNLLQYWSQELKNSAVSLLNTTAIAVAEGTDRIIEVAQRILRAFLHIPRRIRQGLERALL
Outline: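 Chronically HIV-1 RF-infected H9 cells (12-40 days post-infection), 2.5×10^5 per well, were preincubated with compound for 30 min at 37 °C. sCD4 at 1 μg/mL was added for 1 h to trigger Env changes. 6HB-specific rabbit serum (1 h, 37 °C) was then added, followed by PE anti-rabbit (45 min, 4 °C), with flow cytometric fluorescence read-out.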

HIV-1, NL4-3 strain = assay: Virus infection assay (virus entry and single-cycle infection); assay type: cell-based; conditions: Human immunodeficiency virus 1, NL43, TZM-b1, read-out: Nl4
Outline: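 TZM-b1 cells (CD4, CXCR4, CCR5; LTR-driven lacZ/luciferase reporters) were infected with HIV-1 NL4-3 (MOI 0.01) with 80 μg/mL DEAE-dextran in the presence of test compound, 4 h at 37 °C before adding complete medium. Infection was quantified one day post-infection as chemiluminescent β-galactosidase signal.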

## COc1ccc(-c2nc3c(C(=O)N4CCN(C(CO)c5cccc(NC(=O)OC(C)(C)C)c5)C[C@H]4C)cnn3c(C(F)(F)F)c2C)cc1 (stereo partly drawn) [carbamic acid, N-[3-[2-hydroxy-1-[(3R)-4-[[5-(4-methoxyphenyl)-6-methyl-7-(trifluoromethyl)pyrazolo[1,5-α]pyrimidin-3-yl]carbonyl]-3-methyl-1-piperazinyl]ethyl]phenyl]-, 1,1-dimethylethyl ester]
[1]
  IC50: 1.1 to 10 µM
HIV-1, NL4-3 strain
  IC50: 1.1 to 10 µM

## COc1ccc(-c2nc3c(C(=O)N4CCN([C@@H](C)c5ccc(F)c(F)c5)C[C@H]4C)cnn3c(C(F)(F)F)c2C)cc1 [methanone, [(2R)-4-[(1S)-1-(3,4-difluorophenyl)ethyl]-2-methyl-1-piperazinyl][5-(4-methoxyphenyl)-6-methyl-7-(trifluoromethyl)pyrazolo[1,5-α]pyrimidin-3-yl]-]
[1]
  IC50: < 1 µM
HIV-1, NL4-3 strain
  IC50: < 1 µM

## COc1ccc(-c2nc3c(C(=O)N4CCN([C@@H](CO)c5ccccc5)C[C@H]4C)cnn3c(C(F)(F)F)c2C)cn1 [methanone, [(2R)-4-[(1R)-2-hydroxy-1-phenylethyl]-2-methyl-1-piperazinyl][5-(6-methoxy-3-pyridinyl)-6-methyl-7-(trifluoromethyl)pyrazolo[1,5-α]pyrimidin-3-yl]-]
[1]
  IC50: < 1 µM
HIV-1, NL4-3 strain
  IC50: < 1 µM

## COc1ccc(-c2nc3c(C(=O)N4CCN(C(CO)c5ccco5)C[C@H]4C)cnn3c(C(F)(F)F)c2C)cc1 (stereo partly drawn) [methanone, [(2R)-4-[1-(2-furanyl)-2-hydroxyethyl]-2-methyl-1-piperazinyl][5-(4-methoxyphenyl)-6-methyl-7-(trifluoromethyl)pyrazolo[1,5-α]pyrimidin-3-yl]-]
[1]
  IC50: < 1 µM
HIV-1, NL4-3 strain
  IC50: < 1 µM

## COc1ccc(-c2nc3c(C(=O)N4CCN([C@H](CO)c5ccco5)C[C@H]4C)cnn3c(C(F)(F)F)c2C)cc1 [methanone, [(2R)-4-[(1R)-1-(2-furanyl)-2-hydroxyethyl]-2-methyl-1-piperazinyl][5-(4-methoxyphenyl)-6-methyl-7-(trifluoromethyl)pyrazolo[1,5-α]pyrimidin-3-yl]-]
[1]
  IC50: < 1 µM
HIV-1, NL4-3 strain
  IC50: < 1 µM

## COc1ccc(-c2nc3c(C(=O)N4CCN(C(CO)c5cc(F)cc(F)c5OC)C[C@H]4C)cnn3c(C(F)(F)F)c2C)cc1 (stereo partly drawn) [methanone, [(2R)-4-[1-(3,5-difluoro-2-methoxyphenyl)-2-hydroxyethyl]-2-methyl-1-piperazinyl][5-(4-methoxyphenyl)-6-methyl-7-(trifluoromethyl)pyrazolo[1,5-α]pyrimidin-3-yl]-]
[1]
  IC50: < 1 µM
HIV-1, NL4-3 strain
  IC50: < 1 µM

## COc1ccc(-c2nc3c(C(=O)N4CCN(C(CO)c5ccc(Cl)s5)C[C@H]4C)cnn3c(C(F)(F)F)c2C)cc1 (stereo partly drawn) [methanone, [(2R)-4-[1-(5-chloro-2-thienyl)-2-hydroxyethyl]-2-methyl-1-piperazinyl][5-(4-methoxyphenyl)-6-methyl-7-(trifluoromethyl)pyrazolo[1,5-α]pyrimidin-3-yl]-]
[1]
  IC50: < 1 µM
HIV-1, NL4-3 strain
  IC50: < 1 µM

## COc1ccc(-c2nc3c(C(=O)N4CCN(C(CO)c5cccnc5)C[C@H]4C)cnn3c(C(F)(F)F)c2C)cc1 (stereo partly drawn) [methanone, [(2R)-4-[2-hydroxy-1-(3-pyridinyl)ethyl]-2-methyl-1-piperazinyl][5-(4-methoxyphenyl)-6-methyl-7-(trifluoromethyl)pyrazolo[1,5-α]pyrimidin-3-yl]-]
[1]
  IC50: < 1 µM
HIV-1, NL4-3 strain
  IC50: > 10.1 µM

## COc1ccc(-c2nc3c(C(=O)N4CCN([C@@H](CO)c5cscc5C)C[C@H]4C)cnn3c(C(F)(F)F)c2C)cc1 [methanone, [(2R)-4-[(1R)-2-hydroxy-1-(4-methyl-3-thienyl)ethyl]-2-methyl-1-piperazinyl][5-(4-methoxyphenyl)-6-methyl-7-(trifluoromethyl)pyrazolo[1,5-α]pyrimidin-3-yl]-]
[1]
  IC50: < 1 µM
HIV-1, NL4-3 strain
  IC50: < 1 µM

## COc1ccc(-c2nc3c(C(=O)N4CCN(C(CO)c5cccc(CNC(C)=O)c5)C[C@H]4C)cnn3c(C(F)(F)F)c2C)cc1 (stereo partly drawn) [acetamide, N-[[3-[2-hydroxy-1-[(3R)-4-[[5-(4-methoxyphenyl)-6-methyl-7-(trifluoromethyl)pyrazolo[1,5-α]pyrimidin-3-yl]carbonyl]-3-methyl-1-piperazinyl]ethyl]phenyl]methyl]-]
[1]
  IC50: > 10.1 µM
HIV-1, NL4-3 strain
  IC50: > 10.1 µM

## COc1ccc(-c2nc3c(C(=O)N4CCN(C(CO)c5cccc(C(C)=O)c5)C[C@H]4C)cnn3c(C(F)(F)F)c2C)cc1 (stereo partly drawn) [ethanone, 1-[3-[2-hydroxy-1-[(3R)-4-[[5-(4-methoxyphenyl)-6-methyl-7-(trifluoromethyl)pyrazolo[1,5-α]pyrimidin-3-yl]carbonyl]-3-methyl-1-piperazinyl]ethyl]phenyl]-]
[1]
  IC50: < 1 µM
HIV-1, NL4-3 strain
  IC50: < 1 µM

## COc1ccc(-c2nc3c(C(=O)N4CCN([C@H](CO)c5cscc5C)C[C@H]4C)cnn3c(C(F)(F)F)c2C)cc1 [methanone, [(2R)-4-[(1S)-2-hydroxy-1-(4-methyl-3-thienyl)ethyl]-2-methyl-1-piperazinyl][5-(4-methoxyphenyl)-6-methyl-7-(trifluoromethyl)pyrazolo[1,5-α]pyrimidin-3-yl]-]
[1]
  IC50: < 1 µM
HIV-1, NL4-3 strain
  IC50: < 1 µM

## COc1ccc(-c2nc3c(C(=O)N4CCN([C@@H](CO)c5ccccc5)C[C@H]4C)cnn3c(C(F)(F)F)c2C)cc1 [drawing 184, methanone, [(2R)-4-[(1R)-2-hydroxy-1-phenylethyl]-2-methyl-1-piperazinyl][5-(4-methoxyphenyl)-7-(trifluoromethyl)pyrazolo[1,5-α]pyrimidin-3-yl]-]
[1]
  IC50: < 1 µM
HIV-1, NL4-3 strain
  IC50: < 1 µM

## COc1ccc(-c2nc3c(C(=O)N4CCN(C(CO)c5cccc(OC)c5OC)C[C@H]4C)cnn3c(C(F)(F)F)c2C)cc1 (stereo partly drawn) [methanone, [(2R)-4-[1-(2,3-dimethoxyphenyl)-2-hydroxyethyl]-2-methyl-1-piperazinyl][5-(4-methoxyphenyl)-6-methyl-7-(trifluoromethyl)pyrazolo[1,5-α]pyrimidin-3-yl]-]
[1]
  IC50: < 1 µM
HIV-1, NL4-3 strain
  IC50: < 1 µM

## CCOc1ncccc1C(CO)N1CCN(C(=O)c2cnn3c(C(F)(F)F)c(C)c(-c4ccc(OC)cc4)nc23)[C@H](C)C1 (stereo partly drawn) [methanone, [(2R)-4-[1-(2-ethoxy-3-pyridinyl)-2-hydroxyethyl]-2-methyl-1-piperazinyl][5-(4-methoxyphenyl)-6-methyl-7-(trifluoromethyl)pyrazolo[1,5-α]pyrimidin-3-yl]-]
[1]
  IC50: < 1 µM
HIV-1, NL4-3 strain
  IC50: < 1 µM

## COc1ccc(-c2nc3c(C(=O)N4CCN(C(C(=O)O)c5ccccc5)C[C@H]4C)cnn3c(C(F)(F)F)c2C)cc1 (stereo partly drawn) [1-piperazineacetic acid, 4-[[5-(4-methoxyphenyl)-6-methyl-7-(trifluoromethyl)pyrazolo[1,5-α]pyrimidin-3-yl]carbonyl]-3-methyl-α-phenyl-, (3R)-]
[1]
  IC50: > 10.1 µM
HIV-1, NL4-3 strain
  IC50: > 10.1 µM

## COc1ccc(-c2nc3c(C(=O)N4CCN([C@H](C)c5ccc(F)c(F)c5)C[C@H]4C)cnn3c(C(F)(F)F)c2C)cc1 [methanone, [(2R)-4-[(1R)-1-(3,4-difluorophenyl)ethyl]-2-methyl-1-piperazinyl][5-(4-methoxyphenyl)-6-methyl-7-(trifluoromethyl)pyrazolo[1,5-α]pyrimidin-3-yl]-]
[1]
  IC50: < 1 µM
HIV-1, NL4-3 strain
  IC50: < 1 µM

## COc1ccc(-c2nc3c(C(=O)N4CCN([C@H](CO)c5ccccc5)C[C@H]4C)cnn3c(C(F)(F)F)c2C)cc1 [methanone, [(2R)-4-[(1S)-2-hydroxy-1-phenylethyl]-2-methyl-1-piperazinyl][5-(4-methoxyphenyl)-6-methyl-7-(trifluoromethyl)pyrazolo[1,5-α]pyrimidin-3-yl]-]
[1]
  IC50: < 1 µM
HIV-1, NL4-3 strain
  IC50: < 1 µM

## COc1ccc(-c2nc3c(C(=O)N4CCN([C@H](C)c5ccc(F)cc5)C[C@H]4C)cnn3c(C(F)(F)F)c2C)cc1 [methanone, [(2R)-4-[(1R)-1-(4-fluorophenyl)ethyl]-2-methyl-1-piperazinyl][5-(4-methoxyphenyl)-6-methyl-7-(trifluoromethyl)pyrazolo[1,5-α]pyrimidin-3-yl]-]
[1]
  IC50: < 1 µM
HIV-1, NL4-3 strain
  IC50: < 1 µM

## COc1ccc(-c2nc3c(C(=O)N4CCN(C(CO)c5ccsc5)C[C@H]4C)cnn3c(C(F)(F)F)c2C)cc1 (stereo partly drawn) [methanone, [(2R)-4-[2-hydroxy-1-(3-thienyl)ethyl]-2-methyl-1-piperazinyl][5-(4-methoxyphenyl)-6-methyl-7-(trifluoromethyl)pyrazolo[1,5-α]pyrimidin-3-yl]-]
[1]
  IC50: < 1 µM
HIV-1, NL4-3 strain
  IC50: < 1 µM

## COc1ccc(-c2nc3c(C(=O)N4CCN(C(CO)c5cccnc5OC)C[C@H]4C)cnn3c(C(F)(F)F)c2C)cc1 (stereo partly drawn) [methanone, [(2R)-4-[2-hydroxy-1-(2-methoxy-3-pyridinyl)ethyl]-2-methyl-1-piperazinyl][5-(4-methoxyphenyl)-6-methyl-7-(trifluoromethyl)pyrazolo[1,5-α]pyrimidin-3-yl]-]
[1]
  IC50: < 1 µM
HIV-1, NL4-3 strain
  IC50: < 1 µM

## COc1ccc(-c2nc3c(C(=O)N4CCN([C@@H](CO)c5c(C)noc5C)C[C@H]4C)cnn3c(C(F)(F)F)c2C)cc1 [methanone, [(2R)-4-[(1R)-1-(3,5-dimethyl-4-isoxazolyl)-2-hydroxyethyl]-2-methyl-1-piperazinyl][5-(4-methoxyphenyl)-6-methyl-7-(trifluoromethyl)pyrazolo[1,5-α]pyrimidin-3-yl]-]
[1]
  IC50: 1.1 to 10 µM
HIV-1, NL4-3 strain
  IC50: 1.1 to 10 µM
